Literature values as cited in paper PMC9620260 (Journal of Medicinal Chemistry, 2022).
Like-named read-outs stand apart in the source and are kept apart here.

What was measured:
[1] = target: T. cruzi trans-sialidase (TcTS)
[2] = system: C. perfringens sialidase (CpNanI)
Neu1 = conditions: selective for Neu1 over the other isoenzymes
[3] = not given; remark: listed apart in the source

CC(=O)N[C@H]1[C@H]([C@H](O)[C@H](O)CO)O[C@@](Oc2ccc([N+](=O)[O-])cc2C(F)F)(C(=O)O)C[C@@H]1O [2-difluoromethyl-4-nitrophenyl glycoside of αNeu5Ac]
IC50 ([1]; irreversible inhibitor of trans-sialidase): 600 µM | T. cruzi infection of mammalian cells (T. cruzi): prevents T. cruzi infection of mammalian cells

O=C(O)c1cc(O)c2c(c1)C(=O)c1cc(O)c(Cl)c(O)c1C2=O [6-chloro-9,10-dihydro-4,5,7-trihydroxy-9,10-dioxo-2-anthracenecarboxylic acid]
IC50 ([1]; specific TcTS inhibitor): 0.58 µM

COc1ccc(C=CC(=O)C=C(O)C=Cc2ccc(O)c(O)c2)cc1O [7-(3,4-dihydroxyphenyl)-5-hydroxy-1-(3-hydroxy-4-methoxyphenyl) hepta-1,4,6-trien-3-one]
inhibition of V. cholerae sialidase (V. cholerae sialidase): inhibit | inhibition of S. pneumoniae NanA (SpNanA): inhibit | inhibition of C. perfringens sialidase [2]: inhibit

CC(=O)NC1C(O)C(F)C(F)(C(=O)O)OC1C(O)C(O)CN=[N+]=[N-] (stereo not shown) [9-azido-modified 2,3-diF-Neu5Ac]
inhibitory activity against bacterial sialidases (bacterial sialidase; effect of modification of 2,3-difluoro-Sia): increased inhibitory activity

CCCCC(=O)NC[C@@H](O)[C@@H](O)[C@@H]1OC(C(=O)O)=C[C@H](O)[C@H]1NC(C)=O [C-9 Pentylamido derivative of DANA]
IC50 against Neu1 (Neu1): micromolar

CC(=O)N[C@H]1[C@H]([C@H](O)[C@H](O)CO)OC(C(=O)O)=C[C@@H]1O [DANA, 2-deoxy-2,3-dehydro-N-acetylneuraminic acid]
IC50 against TcTS [1]: several hundred | Ki values (influenza viral NA; influenza viral neuraminidases): micromolar range

COc1cc(C)c(C(=O)Oc2cc(C)c(C(=O)O)c(O)c2)c(O)c1 [Evernic acid]
inhibition against bacterial sialidase (bacterial sialidase): dose-dependent inhibition

CC(=O)N[C@H]1[C@H]([C@H](O)[C@H](O)CO)OC(O)(C(=O)O)C[C@@H]1O (stereo partly shown) [Neu5Ac, N-acetylneuraminic acid]
inhibition of sialidases (sialidases): weak inhibitor

COC(=O)C1(OC(C)=O)OC([C@H](OC(C)=O)[C@@H](COC(C)=O)OC(C)=O)C(NC(C)=O)C(OC(C)=O)C1F (stereo partly shown) [P-3Fax-Neu5Ac]
nephrotoxicity: well-known nephrotoxicity | inhibition of the sialyltransferases (sialyltransferases): cell-permeable specific inhibitor

COc1cc2oc(-c3ccc(O)cc3O)c(CC=C(C)C)c(=O)c2c(O)c1/C=C/C(C)C [artocarpin]
inhibitory activity against S. pneumoniae sialidases (S. pneumoniae sialidases): inhibitory activity | inhibitory activity against influenza sialidase (influenza viral NA): inhibitory activity

O=C(CCc1ccccc1)C[C@@H]1C[C@@H](c2ccccc2)c2c(cc(/C=C/c3ccccc3)oc2=O)O1 [katsumadain A]
inhibitory activity against S. pneumoniae sialidases (S. pneumoniae sialidases): inhibitory activity | inhibitory activity against influenza sialidase (influenza viral NA): inhibitory activity

CCOC(=O)C1=C[C@@H](OC(CC)CC)[C@H](NC(C)=O)[C@@H](N)C1 [oseltamivir]
side effects [3]: neuropsychiatric side effects
